Results reported in patent publication US20170291890A1 (Epizyme, Inc., priority 2014, published 2017).

Experiments:
KDM4A = biological target: T1, KDM4A (Homo sapiens, UniProt O75164); assay: KDM4A Assay (SAMDI mass spectrometry demethylase assay); assay type: biochemical; conditions: N-terminal His-tagged KDM4A 1-350; class symbols; read-out: 4A IC50
T1 construct: N-terminal His-tagged KDM4A^1-350 was purchased from BPS Biosciences; His (N); purchased BPS Biosciences
T1 sequence (O75164 1-350): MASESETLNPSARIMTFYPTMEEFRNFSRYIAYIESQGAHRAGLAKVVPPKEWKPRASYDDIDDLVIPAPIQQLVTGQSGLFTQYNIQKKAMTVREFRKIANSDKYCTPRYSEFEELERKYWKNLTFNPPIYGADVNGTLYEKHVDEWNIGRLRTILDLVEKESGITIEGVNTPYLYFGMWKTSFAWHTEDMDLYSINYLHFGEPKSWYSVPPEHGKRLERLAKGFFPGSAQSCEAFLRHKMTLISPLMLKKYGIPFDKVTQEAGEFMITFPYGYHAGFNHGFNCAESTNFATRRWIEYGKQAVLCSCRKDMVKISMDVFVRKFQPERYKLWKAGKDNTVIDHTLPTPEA
Summary of the method: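 His-tagged KDM4A 1-350 (5 nM final) was preincubated 30 min with compound (10 μM final for screening) in 50 mM HEPES pH 8.0 with ascorbate, 10 μM Fe(II) and TCEP. Biotinylated Kme2 peptide (600 nM) and 2-oxoglutarate (5 μM) reacted 120 min at 25°C before a formic acid stop. SAMDI-MS % conversion from substrate and product peak areas; IC50 from dose-response.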

KDM4C = biological target: T2, KDM4C (Homo sapiens, UniProt Q9H3R0); assay: KDM4C Assay (SAMDI mass spectrometry demethylase assay); assay type: biochemical; conditions: N-terminal GST-tagged KDM4C 2-372; class symbols; read-out: 4C IC50
T2 construct: N-terminal GST-tagged KDM4C^2-372 was purchased from BPS Biosciences; GST (N); purchased BPS Biosciences
T2 sequence (Q9H3R0 2-372): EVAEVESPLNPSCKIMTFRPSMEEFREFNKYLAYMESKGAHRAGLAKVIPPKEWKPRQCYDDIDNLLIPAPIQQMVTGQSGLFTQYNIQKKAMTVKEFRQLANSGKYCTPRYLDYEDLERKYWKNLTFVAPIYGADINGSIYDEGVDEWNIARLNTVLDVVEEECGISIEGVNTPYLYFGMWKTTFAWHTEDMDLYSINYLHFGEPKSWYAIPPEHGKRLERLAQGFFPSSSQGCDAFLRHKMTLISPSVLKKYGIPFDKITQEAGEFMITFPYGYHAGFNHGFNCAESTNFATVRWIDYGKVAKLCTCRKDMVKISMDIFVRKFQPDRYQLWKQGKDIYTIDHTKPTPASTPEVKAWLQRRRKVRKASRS
Summary of the method: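 GST-tagged KDM4C 2-372 (5 nM) preincubated 30 min with compound, then H3K9me3 biotinylated peptide (500 nM) and 2-oxoglutarate (15 μM) added in HEPES pH 8.0 with ascorbate, Fe(II), TCEP; 150 min at 25 °C, formic-acid quench. Conversion by SAMDI mass spectrometry from substrate/product peak AUC; IC50 from dose-response.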

Cc1n[nH]c(-c2ccccc2)c1Nc1cnccc1C(=O)O [Compound 55, 3-((5-methyl-3-phenyl-1H-pyrazol-4-yl)amino)isonicotinic acid]
IC50 (KDM4A): 1000 to 10000 nM | IC50 (KDM4C): 1000 to 10000 nM

O=C(O)c1ccncc1Nc1cnn(CCN2CCC(F)(F)CC2)c1-c1ccccc1 [Compound 18, 3-((1-(2-(4,4-difluoropiperidin-1-yl)ethyl)-5-phenyl-1H-pyrazol-4-yl)amino)isonicotinic acid]
IC50 (KDM4A): 100 to 1000 nM | IC50 (KDM4C): 100 to 1000 nM

Cn1ncc(-c2ccc(F)cc2)c1Nc1cnccc1C(=O)O [Compound 8, 3-((4-(4-fluorophenyl)-1-methyl-1H-pyrazol-5-yl)amino) isonicotinic acid]
IC50 (KDM4A): 1000 to 10000 nM | IC50 (KDM4C): 1000 to 10000 nM

O=C(O)c1ccncc1Nc1cn(-c2ccccc2)nc1-c1ccccc1 [Compound 41, 3-((1,3-Diphenyl-1H-pyrazol-4-yl)amino)isonicotinic acid]
IC50 (KDM4A): 100 to 1000 nM | IC50 (KDM4C): 100 to 1000 nM

O=C(O)c1ccncc1Nc1nn(CCC(F)(F)F)cc1-c1ccccc1 [Compound 73, 3-((4-phenyl-1-(3,3,3-trifluoropropyl)-1H-pyrazol-3-yl)amino) isonicotinic acid]
IC50 (KDM4A): 100 to 1000 nM | IC50 (KDM4C): 100 to 1000 nM

Cc1c(Nc2cnccc2C(=O)O)cnn1C1CCN(C(=O)c2ccccc2)CC1 [Compound 98, 3-(1-(1-benzoylpiperidin-4-yl)-5-methyl-1H-pyrazol-4-ylamino) isonicotinic acid]
IC50 (KDM4A): 100 to 1000 nM | IC50 (KDM4C): 100 to 1000 nM
